{
  "source": "patent US11202787B2",
  "about": "“Use of ACTH in assessment and prophylactic treatment of hypokalemia associated with glucocorticoid receptor modulator treatment of Cushing's syndrome patients” (Corcept Therapeutics, Inc., priority 2018, dated 2021)",
  "key": {"[1]": {"system": "Cushing's syndrome patients", "conditions": "in vivo", "description": "The risk of experiencing at least one episode of hypokalemia (potassium level <3.5 mEq/L) after 7 to 14 Days of exposure to KORLYM (mifepristone) was evaluated using stepwise multivariable logistic regression and single-variable logistic regression models. The following independent factors were evaluated for potential association with hypokalemia based on the biology of the disease: total cortisol at Day 1, ACTH at Day 1, and potassium level at Day 1.\nThe risk of experiencing at least one episode of hypokalemia (potassium level <3.5 mmol/L) after 28 Days of exposure to KORLYM was evaluated using stepwise multivariable logistic regression and single-variable logistic regression models. The following independent factors were evaluated for potential association with hypokalemia based on the biology of the disease: total cortisol at Day 1 and Day 14 (cort_01 and cort_14), ACTH at Day 1 and Day 14 (ACTH_01 and ACTH_14), and potassium levels at Day 1 and Day 14 (K_01 and K_14).\nPatients were defined to have severe/recurrent hypokalemia for this analysis if they had at least one value of potassium of 2.5 mmol/L or lower, or if they had recurrent hypokalemia (hypokalemia occurring during multiple visits after Day 14 visit).\nThe Cushing's syndrome study reported herein was conducted in accordance with the Declaration of Helsinki and Good Clinical Practice (GCP) according to International Conference on Harmonization (ICH) guidelines.\nDosing Schedule Dosing was started with 300 mg of mifepristone once per day for 14 days. After 14 days, if no clinical improvement was seen but the drug was well tolerated, the dose of mifepristone was increased to 600 mg once per day. After 4 weeks of dosing at 600 mg once per day, if no clinical improvement was seen but the drug was well tolerated, the dose was increased to 900 mg once per day. Dose escalation was based on weight with the maximum dose no higher than 20 mg/kg/day. […] After 4 weeks of dosing at 900 mg once per day, if no clinical improvement was seen but the drug was well tolerated, the dose was increased to 1200 mg once per day. Study duration was 24 weeks.\nSerum electrolytes, including potassium, were measured regularly throughout the study period.\nExtensive modeling of low potassium levels among the N=47 subjects was performed to determine the best predictors of low potassium after start of mifepristone. The modeling was based on logistic regressions where the endpoint was categorical Low vs High Potassium levels (Non-Hypokalemic Potassium >3.5 mmol/L vs Hypokalemic Potassium ≤3.5 mmol/L).\nPotassium levels were obtained on every subject at either screening or the pre-drug administration baseline visit, and then also at every scheduled post-baseline visit. Potassium levels post-baseline were therefore obtained as early as day 7 and through day 210 (week 30 was the last visit and was the 6 week follow-up visit). ACTH, and cortisol were measured at six visits (week 2 (day 14), week 6 (day 42), week 10 (day 70), week 16 (day 112), and week 24 (day 168) week 6 follow-up (day 210))."}, "[2]": {"system": "subjects in an Alzheimer's study", "experiment": "Alzheimer's study: hypokalemia", "type": "in vivo, human", "excerpt": "(§1) Clinically meaningful hypokalemia (≤3.1) has been reported in 16 of 821 (1.9%) mifepristone treated subjects (12 in completed double blind PMD trials, and 4 in a completed Alzheimer's trial), and in 5 of 626 (0.8%) placebo treated subjects in completed PMD trials."}, "[3]": {"system": "psychotic major depression (PMD) subjects", "experiment": "Double blind psychotic major depression (PMD) trials: hypokalemia", "type": "in vivo, human", "excerpt": "as §1"}},
  "note": "Where two headings read alike, the source gives them in different places.",
  "data": [
    {"smiles": "CC#C[C@]1(O)CC[C@H]2[C@@H]3CCC4=CC(=O)CCC4=C3[C@@H](c3ccc(N(C)C)cc3)C[C@@]21C", "note": "[mifepristone, 11β-(4-dimethylaminophenyl)-17β-hydroxy-17α-(1-propynyl)-estra-4,9-dien-3-one]", "values": [
      {"measurement": "developed hypokalemia on or after Day 28", "setting": "[1]; both, human", "result": 6.7, "unit": "%"},
      {"measurement": "developed severe/recurrent hypokalemia on or after Day 28", "setting": "[1]; both, human", "result": 6.7, "unit": "%"},
      {"measurement": "subjects with a Potassium value ≤3.5 mmol/L at any of the six visits", "setting": "[1]; both, human", "result": 21, "unit": "subjects"},
      {"measurement": "subjects with a Potassium value ≤3.5 mmol/L at any post-baseline visit", "setting": "[1]; both, human", "result": 23, "unit": "subjects"},
      {"measurement": "Number with Hypokalemia (%) (Potassium ≤ 3.4 mEq/L)", "setting": "[1]; both, human, 6 week", "result": "7 (14%) Number (%)"},
      {"measurement": "Number with Hypokalemia (%) (Potassium ≤ 3.4 mEq/L)", "setting": "[1]; both, human, 8 week", "result": "4 (8%) Number (%)"},
      {"measurement": "Number with Hypokalemia (%) (Potassium ≤ 3.4 mEq/L)", "setting": "[1]; both, human, 10 week", "result": "4 (8%) Number (%)"},
      {"measurement": "Number with Hypokalemia (%) (Potassium ≤ 3.4 mEq/L)", "setting": "[1]; both, human, 12 week", "result": "3 (6%) Number (%)"},
      {"measurement": "Number with Severe Hypokalemia (%) (Potassium ≤ 2.5 mEq/L)", "setting": "[1]; both, human, 12 week", "result": "1 (2%) Number (%)"},
      {"measurement": "Number with Hypokalemia (%) (Potassium ≤ 3.4 mEq/L)", "setting": "[1]; both, human, 16 week", "result": "5 (10%) Number (%)"},
      {"measurement": "Number with Severe Hypokalemia (%) (Potassium ≤ 2.5 mEq/L)", "setting": "[1]; both, human, 16 week", "result": "1 (2%) Number (%)"},
      {"measurement": "Number with Hypokalemia (%) (Potassium ≤ 3.4 mEq/L)", "setting": "[1]; both, human, 20 week", "result": "1 (2%) Number (%)"},
      {"measurement": "Number with Hypokalemia (%) (Potassium ≤ 3.4 mEq/L)", "setting": "[1]; both, human, 24 week", "result": "4 (8%) Number (%)"},
      {"measurement": "Hypokalemia observed", "setting": "[1]; both, human, 24 weeks", "result": 44, "unit": "%"},
      {"measurement": "No Hypokalemia", "setting": "[1]; both, human, 24 weeks", "result": "29 (64.4) n (%)"},
      {"measurement": "Non-Severe Hypokalemia", "setting": "[1]; both, human, 24 weeks", "result": "7 (15.6) n (%)"},
      {"measurement": "Severe/Recurrent Hypokalemia", "setting": "[1]; both, human, 24 weeks", "result": "9 (20.0) n (%)"},
      {"measurement": "developed hypokalemia after dosing", "setting": "[1]; both, human, 24 weeks", "result": 42.9, "unit": "%"},
      {"measurement": "Number with Hypokalemia (%) (Potassium ≤ 3.4 mEq/L)", "setting": "[1]; both, human, 30 week", "result": "3 (6%) Number (%)"},
      {"measurement": "Number with Severe Hypokalemia (%) (Potassium ≤ 2.5 mEq/L)", "setting": "[1]; both, human, 30 week", "result": "1 (2%) Number (%)"},
      {"measurement": "Number with Hypokalemia (%) (Potassium ≤ 3.4 mEq/L)", "setting": "[1]; both, human, 1 day", "result": "2 (4%) Number (%)"},
      {"measurement": "Number with Hypokalemia (%) (Potassium ≤ 3.4 mEq/L)", "setting": "[1]; both, human, 7 day", "result": "2 (4%) Number (%)"},
      {"measurement": "Number of Subjects Hypokalemic <=3.5 mmol/L", "setting": "[1]; both, human, 14 day", "result": 8},
      {"measurement": "Number of Subjects Non-Hypokalemic >3.5 mmol/L", "setting": "[1]; both, human, 14 day", "result": 38},
      {"measurement": "Number with Hypokalemia (%) (Potassium ≤ 3.4 mEq/L)", "setting": "[1]; both, human, 14 day", "result": "8 (16%) Number (%)"},
      {"measurement": "Number with Severe Hypokalemia (%) (Potassium ≤ 2.5 mEq/L)", "setting": "[1]; both, human, 14 day", "result": "1 (2%) Number (%)"},
      {"measurement": "subjects with a Potassium value ≤3.5 mmol/L as early as day 14", "setting": "[1]; both, human, 14 days", "result": 8},
      {"measurement": "subjects with a Potassium value ≤3.5 mmol/L as early as day 14, all post-baseline values", "setting": "[1]; both, human, 14 days", "result": 11},
      {"measurement": "Number with Hypokalemia (%) (Potassium ≤ 3.4 mEq/L)", "setting": "[1]; both, human, 28 day", "result": "10 (20%) Number (%)"},
      {"measurement": "Number of Subjects Hypokalemic <=3.5 mmol/L", "setting": "[1]; both, human, 42 day", "result": 6},
      {"measurement": "Number of Subjects Non-Hypokalemic >3.5 mmol/L", "setting": "[1]; both, human, 42 day", "result": 35},
      {"measurement": "Number of Subjects Hypokalemic <=3.5 mmol/L", "setting": "[1]; both, human, 70 day", "result": 6},
      {"measurement": "Number of Subjects Non-Hypokalemic >3.5 mmol/L", "setting": "[1]; both, human, 70 day", "result": 30},
      {"measurement": "Number of Subjects Hypokalemic <=3.5 mmol/L", "setting": "[1]; both, human, 112 day", "result": 9},
      {"measurement": "Number of Subjects Non-Hypokalemic >3.5 mmol/L", "setting": "[1]; both, human, 112 day", "result": 23},
      {"measurement": "Number of Subjects Hypokalemic <=3.5 mmol/L", "setting": "[1]; both, human, 168 day", "result": 5},
      {"measurement": "Number of Subjects Non-Hypokalemic >3.5 mmol/L", "setting": "[1]; both, human, 168 day", "result": 37},
      {"measurement": "Number of Subjects Hypokalemic <=3.5 mmol/L", "setting": "[1]; both, human, 210 day", "result": 3},
      {"measurement": "Number of Subjects Non-Hypokalemic >3.5 mmol/L", "setting": "[1]; both, human, 210 day", "result": 37},
      {"measurement": "patients with at least one potassium value of 2.5 mmol/L or lower", "setting": "[1]", "result": "two"},
      {"measurement": "severity of hypokalemia", "setting": "[1]", "result": "mild to moderate"},
      {"measurement": "subjects with a day 7 Potassium value ≤3.5 mmol/L", "setting": "[1]", "result": "three"},
      {"measurement": "subjects with reported treatment emergent adverse events (TEAEs) of decreased blood potassium", "setting": "[1]", "result": "Seventeen"},
      {"measurement": "Clinically meaningful hypokalemia (≤3.1), subjects", "setting": "[2]; completed Alzheimer's trial", "result": 4},
      {"measurement": "Hypokalemia in the range of 2.8 to 3.5 mEq/L", "setting": "[2]; out of 33 subjects, 300 mg per day for 16 weeks", "result": 9, "unit": "subjects"},
      {"measurement": "Clinically meaningful hypokalemia (≤3.1)", "setting": "[3]; 16 of 821 mifepristone treated subjects, PMD and Alzheimer's trials together", "result": 1.9, "unit": "%"},
      {"measurement": "Hypokalemia in the range of 2.4 to 3.4 mEq/L", "setting": "[3]; 61 of 782 mifepristone treated subjects", "result": 7.8, "unit": "%"},
      {"measurement": "Clinically meaningful hypokalemia (≤3.1), subjects", "setting": "[3]; completed double blind PMD trials", "result": 12}
    ]}
  ]
}
